Here are results for nine molecules from paper PMC12217679 (Scientific Reports, 2025).

One experiment deals with cholesterol metabolism. The conditions noted are these: cited from earlier work.
Experiment [1] deals with T1, human intestinal alkaline phosphatase (hIAP) (Homo sapiens, UniProt P09923).
T1 sequence (P09923 20-503 limits assumed): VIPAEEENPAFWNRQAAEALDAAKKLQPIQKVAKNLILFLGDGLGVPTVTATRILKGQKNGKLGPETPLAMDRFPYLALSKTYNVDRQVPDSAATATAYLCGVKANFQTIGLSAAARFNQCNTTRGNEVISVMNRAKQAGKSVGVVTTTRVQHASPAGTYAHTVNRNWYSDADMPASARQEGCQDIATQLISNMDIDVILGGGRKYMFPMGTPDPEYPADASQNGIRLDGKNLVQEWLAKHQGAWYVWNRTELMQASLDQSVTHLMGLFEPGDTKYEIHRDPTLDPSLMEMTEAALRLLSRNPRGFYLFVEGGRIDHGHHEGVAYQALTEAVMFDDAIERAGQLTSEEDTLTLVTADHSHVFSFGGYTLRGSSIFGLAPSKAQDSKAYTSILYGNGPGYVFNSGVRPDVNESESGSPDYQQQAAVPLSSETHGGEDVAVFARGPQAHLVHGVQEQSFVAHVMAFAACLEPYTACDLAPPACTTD
The experiment in a line: SPR competition of IIAEK binding to hIAP by PLP. The settings on record: IIAEK 297 μM, PLP 0, 1000 and 2000 μM, HBS-N pH 7.4.

A further experiment relates to hepatic NPC1L1. The settings on record: cited from earlier work.
The subject of another experiment is mouse liver. The settings on record: cited from earlier work.
The target in the next experiment is DPP4. The conditions noted are these: read-out: dissociation constant (Kd) with DPP4; cited from earlier work.

In the case of HIRL, the “improvement of cholesterol metabolism in animal studies” value (“improvement of cholesterol metabolism” for short) in the experiment on cholesterol metabolism is “effectively improve cholesterol metabolism”.
For the molecule VFVRN, in the experiment with cholesterol metabolism, the “improvement of cholesterol metabolism” value was “effectively improve cholesterol metabolism”.
With `Cc1ncc(COP(=O)(O)O)c(C=O)c1O` [PLP, Pyridoxal 5′-phosphate], the “competition with IIAEK for hIAP” value in experiment [1] is “competes for the interaction between IIAEK and hIAP in a concentration-dependent manner”.
On to VHVV, for which the “improvement of cholesterol metabolism” value in the experiment on cholesterol metabolism was “effectively improve cholesterol metabolism”.
`O=C1[C@H](CC[C@H](O)c2ccc(F)cc2)[C@@H](c2ccc(O)cc2)N1c1ccc(F)cc1` [ezetimibe]: the “hepatic NPC1L1-induced hepatic lipids accumulation” value in the experiment on hepatic NPC1L1 is reported as “eliminated”. Besides, in the experiment on mouse liver, the “hepatic mRNA levels of Hmgcr and Srebf2” value was “increasing hepatic mRNA levels of Hmgcr and Srebf2”; the liver cholesterol levels result is listed as “decreases liver cholesterol levels”.
Take VAWWMY: the “improvement of cholesterol metabolism” value in the experiment on cholesterol metabolism is “effectively improve cholesterol metabolism”.
For GEQQQPGM, the “improvement of cholesterol metabolism” value with cholesterol metabolism is “effectively improve cholesterol metabolism”.
With VSEE, the “improvement of cholesterol metabolism” value in the experiment on cholesterol metabolism is on record as “effectively improve cholesterol metabolism”.
Broadly, the Kd is a measure of binding affinity in units of concentration. As for GLP-1: DPP4 substrate, on DPP4, the equilibrium dissociation constant (Kd) is 153 µM.
